Experimental data reported in patent US7235534B2, “Antisense strategy to modulate estrogen receptor response (ER α and/or ER β )” (Institut de Cardiologie de Montreal, priority 2001, dated 2007).

Experiments:
[1] = tested on: Porcine aortic endothelial cells (PAEC); assay: Chemotactic assay on PAEC (modified Boyden chamber); format: cell-based
Description: Cell migration was evaluated using a modified Boyden 48-well microchamber kit (NeuroProbe, Cabin John, MD.). Near confluent EC and PSMC were rinsed with DMEM and trypsinized. Cells were resuspended in DMEM, 5% FBS, and antibiotics, and a cell count was obtained. […] ER antagonists were added 5 minutes before 17βE. Cells were harvested by trypsinization and resuspended in DMEM, 1% FBS, and antibiotics at a concentration of 5×10^5 cells/ml. […] The two sections of the system were separated by a porous polycarbonate filter (5-μm pores), pre-treated with a gelatine solution (1.5 mg/ml), and assembled. Five hours post incubation at 37° C., the nonmigrated cells were scraped with a plastic policeman, and the migrated cells were stained using a Quick-Diff solution. The filter was then mounted on a glass slide, and migrated cells were counted using a microscope adapted to a video camera to obtain a computer-digitized image.
Cell migration was evaluated using a modified Boyden 48-well microchamber kit (NeuroProbe, Cabin John, MD.). Near confluent PAEC and PSMC were rinsed with DMEM and trypsinized. Cells were resuspended in DMEM, 5% FBS, and antibiotics, and a cell count was obtained. PAEC and PSMC were seeded at 2.5×10^5 cells/well of 6-well tissue culture plates; stimulated for 24 hours in DMEM, 5% FBS, and antibiotics with or without antisense oligomers (10^−6 mol/L) and starved for 48 hours in DMEM, 0.1% FBS, and antibiotics with or without antisense oligomers (10^−6 mol/L daily) with or without 17βE (10^−8 mol/L). Cells were harvested by trypsinization and resuspended in DMEM, 1% FBS, and antibiotics at a concentration of 5×10^5 cells/mL. Fifty μL of this cell suspension with or without antisense oligomers (10^−6 mol/L) treated with or without 17βE (10^−8 mol/L) was added in the higher-chamber of the modified Boyden chamber apparatus, and the lower chamber was filled with DMEM, 1% FBS, antibiotics plus the desired concentration of agonist either 17βE (10^−8 mol/L) or platelet-derived growth factor-BB (PDGF-BB). The 2 sections of the system were separated by a porous polycarbonate filter (5-μm pores size), pretreated with a gelatine solution (1.5 mg/mL), and assembled. Five hours postincubation at 37° C., the non-migrated cells were scraped with a plastic policeman, and the migrated cells were stained using a Quick-Diff solution (Shandon Inc). The filter was then mounted on a glass slide, and migrated cells were counted using a microscope adapted to a video camera to obtain a computer-digitized image.

[2] = local delivery upon porcine coronary angioplasty; cited from earlier work

C[C@]12CC[C@@H]3c4ccc(O)cc4CC[C@H]3[C@@H]1CC[C@@H]2O [17βE, 17-beta-estradiol]
stimulation of PAEC migration as compared to bFGF (10 ng/ml) alone ([1]; 17βE 10^−8M combined with bFGF): 121% | induction of PAEC migration as compared to DMEM 1% ([1]; 17βE 10^−8 mol/L, 5 hours): 4.63 fold | reduction of the degree of restenosis [2]: up to 50%
